Measurements published in ChEMBL document CHEMBL4417631, “Oral peptide inhibitors of interleukin-23 receptor and their use to treat inflammatory bowel diseases” (2017).
*1 amine or outer side, *2 acyl side, *3 side chain or, on linkers, in order; H or OH if unused. Where a SMILES comes first, the peptide text is derived from it. Bridges are numbered along the chain shown (N, C = ends). [ ]: non-standard residue; d: D form. Abu(4-yl) = O=C([C@H](CC[*:3])N[*:1])[*:2]; 2Nal = N[C@@H](Cc1ccc2ccccc2c1)C(=O)O; AEF = NCCOc1ccc(C[C@H](N)C(=O)O)cc1; αMeL = CC(C)C[C@](C)(N)C(=O)O

Columns and labels:
[1] = target: T1, Interleukin-23 receptor (Homo sapiens, UniProt Q5VWK5); experiment: Inhibition of interleukin-23 receptor in human natural killer cells assessed as reduction in IL23/IL18-induced IFNgamma production incubated for 20 to 24 hrs by ELISA; type: cell-based
T1 sequence (Q5VWK5 whole entry): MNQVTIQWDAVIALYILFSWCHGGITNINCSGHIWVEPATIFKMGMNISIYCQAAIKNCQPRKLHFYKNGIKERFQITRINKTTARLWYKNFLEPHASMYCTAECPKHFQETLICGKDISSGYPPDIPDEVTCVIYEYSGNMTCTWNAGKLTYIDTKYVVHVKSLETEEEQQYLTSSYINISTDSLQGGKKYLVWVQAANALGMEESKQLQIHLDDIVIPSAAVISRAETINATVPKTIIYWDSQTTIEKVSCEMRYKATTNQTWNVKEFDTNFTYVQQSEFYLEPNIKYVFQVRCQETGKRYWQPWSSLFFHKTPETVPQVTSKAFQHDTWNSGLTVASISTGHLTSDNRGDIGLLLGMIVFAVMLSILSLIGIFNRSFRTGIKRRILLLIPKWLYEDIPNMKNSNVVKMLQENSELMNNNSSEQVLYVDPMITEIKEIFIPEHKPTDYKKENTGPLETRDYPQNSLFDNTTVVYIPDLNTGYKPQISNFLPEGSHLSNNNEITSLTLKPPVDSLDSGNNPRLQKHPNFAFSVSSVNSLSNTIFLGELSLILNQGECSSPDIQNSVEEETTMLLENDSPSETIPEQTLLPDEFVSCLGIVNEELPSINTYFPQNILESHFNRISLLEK

[2] = target: T1, Interleukin-23 receptor; experiment: Inhibition of interleukin-23 binding to human interleukin-23 receptor incubated for 2 hrs by competitive binding ELISA
[3] = target: T1, Interleukin-23 receptor; experiment: Inhibition of interleukin-23 receptor in human DB cells assessed as reduction in IL-23-stimulated STAT3 phosphorylation incubated for 30 mins by HTRF assay; type: cell-based
[4] = Inhibition of interleukin-23 binding to rat interleukin-23 receptor incubated for 2 hrs by competitive binding ELISA
[5] = Half life in simulated gastric fluid at 20 uM by LC-MS/MS analysis; type: ADME
[6] = Half life in simulated intestinal fluid at 20 uM by LC-MS/MS analysis; type: ADME

| IC50 [2] [µM] | IC50 [3] [µM] | IC50 [4] [µM] | half-life at 20 µM [5] [h] | half-life at 20 µM [6] [h] | SMILES | IC50 [1] [µM] |
| --- | --- | --- | --- | --- | --- | --- |
|  |  |  |  |  | COc1ccc(C[C@H](NC(=O)[C@@H](NC(=O)[C@H](CCC(N)=O)NC(=O)[C@H](Cc2c[nH]c3ccccc23)NC(=O)[C@@H](NC(=O)[C@H](CC(N)=O)NC(=O)[C@@H](NC(=O)[C@@H](Cc2ccccc2)NC(C)=O)C(C)(C)S)[C@@H](C)O)C(C)(C)S)C(=O)N[C@@H](Cc2ccc3ccccc3c2)C(=O)NC2(C(=O)N[C@@H](CCCNC(N)=O)C(=O)N[C@@H](CC(N)=O)C(=O)N[C@@H](CC(N)=O)C(N)=O)CCOCC2)cc1 | < 0.01 |
|  |  |  |  |  | COc1ccc(C[C@H](NC(=O)[C@@H](NC(=O)[C@H](CCC(N)=O)NC(=O)[C@H](Cc2c[nH]c3ccccc23)NC(=O)[C@@H](NC(=O)[C@H](CC(N)=O)NC(=O)[C@@H](NC(=O)[C@@H](Cc2ccccc2)NC(C)=O)C(C)(C)S)[C@@H](C)O)C(C)(C)S)C(=O)N[C@@H](Cc2ccc3ccccc3c2)C(=O)NC2(C(=O)N[C@@H](CCCNC(N)=O)C(=O)N[C@@H](CC(N)=O)C(=O)N[C@@H](CC(N)=O)C(N)=O)CCCCC2)cc1 | < 0.01 |
| 0.01 to 0.025 | 0.01 to 0.025 | 0.01 to 0.025 | < 1 | > 6 | COc1ccc(C[C@H](NC(=O)[C@@H]2CSCC[C@H](NC(C)=O)C(=O)N[C@@H](CCC(N)=O)C(=O)N[C@@H]([C@@H](C)O)C(=O)N[C@@H](Cc3c[nH]c4ccccc34)C(=O)N[C@@H](CCC(N)=O)C(=O)N2)C(=O)N[C@@H](Cc2c[nH]c3ccccc23)C(=O)N[C@@](C)(CCCCN)C(=O)N[C@@H](CCCCNC(C)=O)C(=O)N[C@@H](CC(N)=O)C(=O)NCC(N)=O)cc1 |  |
| < 0.01 | < 0.01 | < 0.01 | < 1 | 2 to 3 | CC(=O)NCCCC[C@H](NC(=O)[C@](C)(CC(C)C)NC(=O)[C@H](Cc1ccc2ccccc2c1)NC(=O)[C@H](Cc1ccc(OCCN)cc1)NC(=O)[C@@H]1CSCC[C@H](NC(C)=O)C(=O)N[C@@H](CCC(N)=O)C(=O)N[C@@H]([C@@H](C)O)C(=O)N[C@@H](Cc2c[nH]c3ccccc23)C(=O)N[C@@H](CCC(N)=O)C(=O)N1)C(=O)N[C@@H](CC(N)=O)C(=O)N[C@@H](CC(N)=O)C(N)=O (Ac-[Abu(4-yl)]QTWQC[AEF][2Nal][αMeL]K(Ac)NN-NH2; thioether 1-6) |  |
| 0.025 to 0.1 | < 0.01 | 0.025 to 0.1 | < 1 | 3 to 6 | COc1ccc(C[C@H](NC(=O)[C@@H]2CSCC[C@H](NC(C)=O)C(=O)N[C@@H](CCC(N)=O)C(=O)N[C@@H]([C@@H](C)O)C(=O)N[C@@H](Cc3c[nH]c4ccccc34)C(=O)N[C@@H](CCC(N)=O)C(=O)N2)C(=O)N[C@@H](Cc2c[nH]c3ccccc23)C(=O)N[C@@](C)(CCCN)C(=O)N[C@@H](CCC(=O)O)C(=O)N[C@@H](CC(N)=O)C(=O)NCC(N)=O)cc1 |  |
| < 0.01 | < 0.01 | 0.01 to 0.025 | < 1 | 3 to 6 | COc1ccc(C[C@H](NC(=O)[C@@H]2CSCC[C@H](NC(C)=O)C(=O)N[C@@H](CCC(N)=O)C(=O)N[C@@H]([C@@H](C)O)C(=O)N[C@@H](Cc3c[nH]c4ccccc34)C(=O)N[C@@H](CCC(N)=O)C(=O)N2)C(=O)N[C@@H](Cc2ccc3ccccc3c2)C(=O)N[C@@](C)(CCCCN)C(=O)N[C@@H](CCCCNC(C)=O)C(=O)N[C@@H](CC(N)=O)C(=O)NCC(N)=O)cc1 |  |
| < 0.01 | < 0.01 | 0.025 to 0.1 | < 1 | 1 to 2 | COc1ccc(C[C@H](NC(=O)[C@@H]2CSCC[C@H](NC(=O)[C@@H](CCCCNC(=O)COCC(=O)NCCCC[C@@H](NC(C)=O)C(=O)N[C@H]3CCSC[C@@H](C(=O)N[C@@H](Cc4ccc(OC)cc4)C(=O)N[C@@H](Cc4ccc5ccccc5c4)C(=O)N[C@@](C)(CC(C)C)C(=O)N[C@@H](CCC(=O)O)C(=O)N[C@@H](CC(N)=O)C(=O)NCC(N)=O)NC(=O)[C@H](CCC(N)=O)NC(=O)[C@H](Cc4c[nH]c5ccccc45)NC(=O)[C@H]([C@@H](C)O)NC(=O)[C@H](CCC(N)=O)NC3=O)NC(C)=O)C(=O)N[C@@H](CCC(N)=O)C(=O)N[C@@H]([C@@H](C)O)C(=O)N[C@@H](Cc3c[nH]c4ccccc34)C(=O)N[C@@H](CCC(N)=O)C(=O)N2)C(=O)N[C@@H](Cc2ccc3ccccc3c2)C(=O)N[C@@](C)(CC(C)C)C(=O)N[C@@H](CCC(=O)O)C(=O)N[C@@H](CC(N)=O)C(=O)NCC(N)=O)cc1 |  |
| < 0.01 | < 0.01 | < 0.01 | < 1 | 1 to 2 | CC(=O)NCCOc1ccc(C[C@H](NC(=O)[C@@H]2CSCC[C@H](NC(C)=O)C(=O)N[C@@H](CCC(N)=O)C(=O)N[C@@H]([C@@H](C)O)C(=O)N[C@@H](Cc3c[nH]c4ccccc34)C(=O)N[C@@H](CCC(N)=O)C(=O)N2)C(=O)N[C@@H](Cc2ccc3ccccc3c2)C(=O)N[C@@](C)(CCCCN)C(=O)N[C@@H](CCC(=O)O)C(=O)N[C@@H](CC(N)=O)C(=O)NCC(N)=O)cc1 |  |
| < 0.01 | < 0.01 | < 0.01 | 3 to 6 | > 6 | CC(=O)NCCCC[C@H](NC(=O)[C@](C)(CCCCN)NC(=O)[C@H](Cc1ccc2ccccc2c1)NC(=O)[C@H](Cc1ccc(OCCN)cc1)NC(=O)[C@@H]1CSCC[C@H](NC(=O)CCC(=O)O)C(=O)N[C@@H](CCC(N)=O)C(=O)N[C@@H]([C@@H](C)O)C(=O)N[C@@H](Cc2c[nH]c3ccccc23)C(=O)N[C@@H](CCC(N)=O)C(=O)N1)C(=O)N[C@@H](CC(N)=O)C(=O)NCC(N)=O |  |
| 0.025 to 0.1 | 0.01 to 0.025 | 0.025 to 0.1 | < 1 | > 6 | COc1ccc(C[C@H](NC(=O)[C@@H]2CSCC[C@H](NC(C)=O)C(=O)N[C@@H](CCC(N)=O)C(=O)N[C@@H]([C@@H](C)O)C(=O)N[C@@H](Cc3c[nH]c4ccccc34)C(=O)N[C@@H](CCC(N)=O)C(=O)N2)C(=O)N[C@@H](Cc2cccc3ccccc23)C(=O)N[C@@](C)(CCCCN)C(=O)N[C@@H](CCCCNC(C)=O)C(=O)N[C@@H](CC(N)=O)C(=O)NCC(N)=O)cc1 |  |
| 0.01 to 0.025 | < 0.01 | 0.025 to 0.1 | < 1 | 1 to 3 | CC(=O)NCCCC[C@H](NC(=O)[C@](C)(CCCCN)NC(=O)[C@H](Cc1ccc2ccccc2c1)NC(=O)[C@H](Cc1ccc(C(N)=O)cc1)NC(=O)[C@@H]1CSCC[C@H](NC(C)=O)C(=O)N[C@@H](CCC(N)=O)C(=O)N[C@@H]([C@@H](C)O)C(=O)N[C@@H](Cc2c[nH]c3ccccc23)C(=O)N[C@@H](CCC(N)=O)C(=O)N1)C(=O)N[C@@H](CC(N)=O)C(=O)NCC(N)=O |  |
| < 0.01 | < 0.01 | < 0.01 | > 6 | > 6 | CC(=O)N[C@H](C(=O)N[C@@H](CCC(N)=O)C(=O)N[C@H](C(=O)N[C@@H](Cc1c[nH]c2ccccc12)C(=O)N[C@@H](CCC(N)=O)C(=O)N[C@H](C(=O)N[C@@H](Cc1ccc(OCCN)cc1)C(=O)N[C@@H](Cc1ccc2ccccc2c1)C(=O)N[C@@](C)(CC(C)C)C(=O)N[C@@H](CCC(N)=O)C(=O)N[C@@H](CC(N)=O)C(=O)N[C@@H](CC(N)=O)C(N)=O)C(C)(C)S)[C@@H](C)O)C(C)(C)S |  |
| 0.025 to 0.1 | < 0.01 | 0.025 to 0.1 | > 6 | > 6 | COc1ccc(C[C@H](NC(=O)[C@@H](NC(=O)[C@H](CCC(N)=O)NC(=O)[C@H](Cc2c[nH]c3ccccc23)NC(=O)[C@@H](NC(=O)[C@H](CCC(N)=O)NC(=O)[C@@H](NC(C)=O)C(C)(C)S)[C@@H](C)O)C(C)(C)S)C(=O)N[C@@H](Cc2ccc3ccccc3c2)C(=O)N[C@@](C)(CCCCN)C(=O)N[C@@H](CCCCNC(C)=O)C(=O)N[C@@H](CC(N)=O)C(=O)NCC(N)=O)cc1 |  |
| < 0.01 | < 0.01 | < 0.01 | > 6 | > 6 | CC(=O)NCCCC[C@H](NC(=O)[C@](C)(CCCCN)NC(=O)[C@H](Cc1ccc2ccccc2c1)NC(=O)[C@H](Cc1ccc(OCCN)cc1)NC(=O)[C@@H]1CSCC[C@H](NC(C)=O)C(=O)N[C@@H](CCC(N)=O)C(=O)N[C@@H]([C@@H](C)O)C(=O)N[C@@H](Cc2c[nH]c3ccccc23)C(=O)N[C@@H](CCC(N)=O)C(=O)N1)C(=O)N[C@@H](CC(N)=O)C(=O)NCC(N)=O |  |
| 0.01 to 0.025 | < 0.01 | 0.025 to 0.1 | < 1 | 2 to 3 | COc1ccc(C[C@H](NC(=O)[C@@H]2CSCC[C@H](NC(C)=O)C(=O)N[C@@H](CCC(N)=O)C(=O)N[C@@H]([C@@H](C)O)C(=O)N[C@@H](Cc3c[nH]c4ccccc34)C(=O)N[C@@H](CCC(N)=O)C(=O)N2)C(=O)N[C@@H](Cc2ccc3ccccc3c2)C(=O)N[C@@](C)(CCCN)C(=O)N[C@@H](CCC(=O)O)C(=O)N[C@@H](CC(N)=O)C(=O)NCC(N)=O)cc1 |  |
